Results as given in patent US20220378948A1, “METAL-BINDING PEPTIDE, AND USE THEREOF” (The Jikei University, priority 2019, published 2022).

Assay: Adsorption on stent in plasma, fluorescence microscopy
Format: binding
Settings: stent immersed in human plasma (37° C., 30 minutes), then 0.5 mM solution
Experimental: Next, in order to analyze the binding ability of the peptide of the present invention and the 4-branched peptide complex to a stent existing in plasma, whether or not the peptide of the present invention also binds to a stent that has been allowed to come into contact with plasma was examined.
That is, a stent was immersed in human plasma (37° C., 30 minutes), and was then removed from the plasma. The stent was then immersed in each peptide solution (0.5 mM) and a 4-branched peptide complex solution (0.5 mM) (37° C., 30 minutes). Thereafter, the stent was sufficiently rinsed with PBS, and was then observed under an upright fluorescence microscope.

binding to the surface of a stent in human plasma (fluorescence): does not bind to a Co—Cr stent
Substance: SEQ ID NO: 9: control peptide that does not bind to a Co—Cr stent; sequence not printed in the text (MKAHHSQLYPRH)
